Measurements from publication PMC10088252.

Details: 600 mg QD (n=10)
Protocol: Dose adjustment was allowed according to the severity of toxicity [Supplementary Table 1].
The primary endpoints were safety, ORR and DCR assessed by investigators. […] AEs referred to treatment-emergent adverse events (TEAEs) and TRAEs were assessed by investigators. Serious adverse events (SAEs) referred to AEs meeting at least one of the following criteria: event leading to death; life-threatening event; event requiring hospitalization or extension of hospital stay; event leading to persistent or evident disability or dysfunction; event leading to congenital malformation or birth defect or event which might lead to injury or that need medical treatment to avoid the above mentioned important medical events.

## O=C(Nc1ccc(Oc2ccnc3c2CCN3)c(F)c1)c1c[nH]cc(-c2ccc(F)cc2)c1=O
  TRAE Decreased Ccr, any grade: 2 (20.0) n (%)
  TRAE Decreased Ccr, grade 3-4: 0 n (%)
  TRAE Decreased appetite, any grade: 1 (10.0) n (%)
  TRAE Decreased appetite, grade 3-4: 1 (10.0) n (%)
  TRAE Diarrhoea, any grade: 1 (10.0) n (%)
  TRAE Diarrhoea, grade 3-4: 0 n (%)
  TRAE Dizziness, any grade: 0 n (%)
  TRAE Dizziness, grade 3-4: 0 n (%)
  TRAE Dry mouth, any grade: 0 n (%)
  TRAE Dry mouth, grade 3-4: 0 n (%)
  TRAE Dysgeusia, any grade: 5 (50.0) n (%)
  TRAE Dysgeusia, grade 3-4: 1 (10.0) n (%)
  TRAE Dyskinesia, any grade: 1 (10.0) n (%)
  TRAE Dyskinesia, grade 3-4: 1 (10.0) n (%)
  TRAE Dysphonia, any grade: 1 (10.0) n (%)
  TRAE Dysphonia, grade 3-4: 0 n (%)
  TRAE Dyspnoea, any grade: 1 (10.0) n (%)
  TRAE Dyspnoea, grade 3-4: 1 (10.0) n (%)
  TRAE Electrocardiogram QT prolonged, any grade: 0 n (%)
  TRAE Electrocardiogram QT prolonged, grade 3-4: 0 n (%)
  TRAE Elevated ALT, any grade: 3 (30.0) n (%)
  TRAE Elevated ALT, grade 3-4: 0 n (%)
  TRAE Elevated AST, any grade: 1 (10.0) n (%)
  TRAE Elevated AST, grade 3-4: 0 n (%)
  TRAE Elevated D dimer, any grade: 1 (10.0) n (%)
  TRAE Elevated D dimer, grade 3-4: 0 n (%)
  TRAE Elevated GGT, any grade: 0 n (%)
  TRAE Elevated GGT, grade 3-4: 0 n (%)
  TRAE Elevated LDH, any grade: 0 n (%)
  TRAE Elevated LDH, grade 3-4: 0 n (%)
  TRAE Elevated alpha-HBDH, any grade: 0 n (%)
  TRAE Elevated alpha-HBDH, grade 3-4: 0 n (%)
  TRAE Elevated bilirubin, any grade: 2 (20.0) n (%)
  TRAE Elevated bilirubin, grade 3-4: 0 n (%)
  TRAE Elevated blood creatinine, any grade: 1 (10.0) n (%)
  TRAE Elevated blood creatinine, grade 3-4: 0 n (%)
  TRAE Elevated creatine phosphokinase, any grade: 0 n (%)
  TRAE Elevated creatine phosphokinase, grade 3-4: 0 n (%)
  TRAE Elevated serum urea, any grade: 0 n (%)
  TRAE Elevated serum urea, grade 3-4: 0 n (%)
  TRAE Elevated troponin, any grade: 0 n (%)
  TRAE Elevated troponin, grade 3-4: 0 n (%)
  TRAE Genital rash, any grade: 1 (10.0) n (%)
  TRAE Genital rash, grade 3-4: 0 n (%)
  TRAE Haematuria, any grade: 0 n (%)
  TRAE Haematuria, grade 3-4: 0 n (%)
  TRAE Headache, any grade: 0 n (%)
  TRAE Headache, grade 3-4: 0 n (%)
  TRAE Hyperhidrosis, any grade: 0 n (%)
  TRAE Hyperhidrosis, grade 3-4: 0 n (%)
  TRAE Hyperlipidaemia, any grade: 0 n (%)
  TRAE Hyperlipidaemia, grade 3-4: 0 n (%)
  TRAE Hypertension, any grade: 2 (20.0) n (%)
  TRAE Hypertension, grade 3-4: 1 (10.0) n (%)
  TRAE Hypoaesthesia oral, any grade: 0 n (%)
  TRAE Hypoaesthesia oral, grade 3-4: 0 n (%)
  TRAE Hypocalcaemia, any grade: 1 (10.0) n (%)
  TRAE Hypocalcaemia, grade 3-4: 0 n (%)
  TRAE Hypotension, any grade: 0 n (%)
  TRAE Hypotension, grade 3-4: 0 n (%)
  TRAE Insomnia, any grade: 0 n (%)
  TRAE Insomnia, grade 3-4: 0 n (%)
  TRAE Leukopenia, any grade: 1 (10.0) n (%)
  TRAE Leukopenia, grade 3-4: 0 n (%)
  TRAE Nausea, any grade: 0 n (%)
  TRAE Nausea, grade 3-4: 0 n (%)
  TRAE Neuritis, any grade: 2 (20.0) n (%)
  TRAE Neuritis, grade 3-4: 0 n (%)
  TRAE Occult blood, any grade: 1 (10.0) n (%)
  TRAE Occult blood, grade 3-4: 0 n (%)
  TRAE Oedema peripheral, any grade: 1 (10.0) n (%)
  TRAE Oedema peripheral, grade 3-4: 0 n (%)
  TRAE Onycholysis, any grade: 0 n (%)
  TRAE Onycholysis, grade 3-4: 0 n (%)
  TRAE Oropharyngeal pain, any grade: 1 (10.0) n (%)
  TRAE Oropharyngeal pain, grade 3-4: 1 (10.0) n (%)
  TRAE PPE, any grade: 1 (10.0) n (%)
  TRAE PPE, grade 3-4: 0 n (%)
  TRAE Paraesthesia, any grade: 0 n (%)
  TRAE Paraesthesia, grade 3-4: 0 n (%)
  TRAE Proteinuria, any grade: 1 (10.0) n (%)
  TRAE Proteinuria, grade 3-4: 0 n (%)
  TRAE Pruritus, any grade: 0 n (%)
  TRAE Pruritus, grade 3-4: 0 n (%)
